Results: patent publication US7351690B2, “Knockout identification of target-specific sites in peptides” (priority 2000, dated 2008)
Square brackets hold non-standard residues; d marks the D form. Primed or numbered codes have the meaning given here. Ends that are not written are not given here. pGlu = O=C1CC[C@@H](C(=O)O)N1; Nle = CCCC[C@H](N)C(=O)O; dH′ = not defined here

Tested on: bombesin receptor
Experiment: competitive binding assay, 125I-Bombesin, rat brain membranes
Settings: not given
Method: Rat brain membranes were utilized as the source of bombesin receptor. The competitive binding assay was performed using a procedure as described by Moody T W, Perk C B, Rivier J, Brown, M R. (Proc Natl Acad Sci USA. 75:5372-5376, […]) and adapted to a 96 well format. An aliquot of membranes taken in assay buffer (50 mM Tris and HCl, pH 7.4 containing 1 mg/mL BSA and 2 μg/mL bacitracin) was incubated with 0.01 nM of ^125I-Bombesin with or without varying concentrations of the test compound for 60 min at 4° C. The incubation was terminated by rapid filtration of the assay mixture, followed by washing the filters with ice-cold buffer. The filters were dried and counted in a gamma counter for retained radioactivity. Non-specific binding was measured by including 1 μM Bombesin in the assay tube. The assay was performed in triplicate and results calculated to determine percentage inhibition of the ^125I-Bombesin binding to its receptors by a test compound. The parent polypeptide is shown in Table 6, with metallopeptides having Cys inserted as shown.

“D-Phe-Gln-Trp-Ala-Cys-Val-Gly-His-Leu-Leu-NH2 ([dF]QWACVGHLL-NH2; also: oxorhenium(V) N3S1 chelate via Cys (Re(V)=O)) [8-6]” was tested, and the “binding to bombesin receptor, in words” value was “least activity”.
“Pyr-Gln-Arg-Leu-Gly-Asn-Gln-Cys-Ala-Val-Gly-His-Leu-Nle-NH2 (QRLGNQCAVGHL; N-term pyroglutamate; Nle-NH2; rhenium complex; printed: Gln-Arg-Leu-Gly-Asn-Gln-Cys-Ala-Val-Gly-His-Leu-) [7-7]” was tested, and the “binding to bombesin receptor, in words” value was “Complete inactivity”.
With “D-Phe-Gln-Trp-Ala-Val-Cys-NH2 ([dF]QWAVC-NH2; also: oxorhenium(V) N3S1 chelate via Cys (Re(V)=O)) [11-3]” the “binding to bombesin receptor, in words” value was “high negative percent inhibition”.

Same assay, conditions: inhibition of 0.01 nM 125I-Bombesin binding; rat brain membranes; test concentration not given

Going from “Pyr-Gln-Arg-Leu-Gly-Cys-Gln-Trp-Ala-Val-Gly-His-Leu-Nle-NH2 (QRLGCQWAVGHL; N-term pyroglutamate; Nle-NH2; rhenium complex; printed: Gln-Arg-Leu-Gly-Cys-Gln-Trp-Ala-Val-Gly-His-Leu-) [7-9]” to “Ala-Val-Cys-His-Leu-NH2 (AVCHL-NH2; not fully specified (bridges); printed as Ala-Val-Cys-His-Leu-NH2; also: oxorhenium(V) N3S1 chelate (Re(V)=O)) [11-9]”, the “% Inhibition” value falls from 93% to 7%.

Compared with “Trp-Ala-Val-Cys-His-Leu-NH2 (WAVCHL-NH2; not fully specified (bridges); printed as Trp-Ala-Val-Cys-His-Leu-NH2; also: oxorhenium(V) N3S1 chelate (Re=O) with Cys) [11-8]”, “Pyr-Gln-Arg-Leu-Gly-Asn-Gln-Trp-Ala-Val-Gly-His-Cys-Nle-NH2 (QRLGNQWAVGHC; N-term pyroglutamate; Nle-NH2; rhenium complex; printed: Gln-Arg-Leu-Gly-Asn-Gln-Trp-Ala-Val-Gly-His-Cys-) [7-2]” is higher in “% Inhibition” value: 13% for the first, 66% for the second.

Going from “Pyr-Gln-Arg-Cys-Leu-Gly-Asn-Gln-Trp-Ala-Val-Gly-His-Leu-Nle-NH2 ([pGlu]QRCLGNQWAVGHL[Nle]-NH2; numbers in words are those of the source; also: oxorhenium(V) N3S1 chelate (Re(V)=O)) [6-12]” to “D-Phe-Gln-Trp-Ala-Val-Cys-His-NH2 ([dF]QWAVCH-NH2; also: oxorhenium(V) N3S1 chelate via Cys (Re(V)=O)) [11-2]”, the “% Inhibition” value falls from 97% to 25%.

Compared with “D-Phe-Gln-Trp-Val-Cys-Val-His-Leu-Leu-NH2 ([dF]QWVCVHLL-NH2; not fully specified (bridges); printed as D-Phe-Gln-Trp-Val-Cys-Val-His-Leu-Leu-NH2; also: oxorhenium(V) N3S1 chelate complex (Re=O)) [12-3]”, “D-Phe-Gln-Trp-Ala-Val-Gly-His-Leu-Cys-NH2 ([dF]QWAVGHLC-NH2; also: rhenium complex (oxorhenium(V) N3S1 chelate via Cys)) [9-1]” is higher in “% Inhibition” value: 14% for the first, 86% for the second.

Going from “D-Phe-Gln-Trp-Ala-Val-Gly-His-Leu-Cys-Leu-NH2 ([dF]QWAVGHLCL-NH2; also: rhenium complex (oxorhenium(V) N3S1 chelate via Cys)) [8-2]” to “D-Phe-Gln-Cys-Trp-Ala-Val-Gly-His-Leu-Leu-NH2 ([dF]QCWAVGHLL-NH2; also: oxorhenium(V) N3S1 tetradentate complex via Cys) [8-8]”, the “% Inhibition” value falls from 75% to 62%.

Compared with “Pyr-Gln-Arg-Leu-Gly-Asn-Gln-Trp-Cys-Ala-Val-Gly-His-Leu-Nle-NH2 ([pGlu]QRLGNQWCAVGHL[Nle]-NH2; numbers in words are those of the source; also: rhenium complex (oxorhenium(V) N3S1 tetradentate chelate via Re=O core)) [6-7]”, “Pyr-Gln-Arg-Leu-Gly-Asn-Gln-Trp-Ala-Cys-Gly-His-Leu-Nle-NH2 (QRLGNQWACGHL; N-terminal pyroglutamate; C-terminal Nle-amide; printed: Gln-Arg-Leu-Gly-Asn-Gln-Trp-Ala-Cys-Gly-His-Leu-) [7-5]” is lower in “% Inhibition” value: 62% for the first, 61% for the second.

Compared with “Pyr-Gln-Arg-Leu-Gly-Asn-Cys-Trp-Ala-Val-Gly-His-Leu-Nle-NH2 (QRLGNCWAVGHL; N-term pyroglutamate; Nle-NH2; rhenium complex; printed: Gln-Arg-Leu-Gly-Asn-Cys-Trp-Ala-Val-Gly-His-Leu-) [7-8]”, “D-Phe-Gln-Trp-D-Ala-Val-Cys-His-Leu-Leu-NH2 ([dF]QW[dA]VCHLL-NH2; numbers in words are those of the source; also: oxorhenium(V) N3S1 chelate complex (Re=O)) [10-4]” is lower in “% Inhibition” value: 84% for the first, 2% for the second.

Compared with “D-Phe-Gln-Trp-Ala-Cys-Val-Gly-His-Leu-Leu-NH2 ([dF]QWACVGHLL-NH2; also: oxorhenium(V) N3S1 chelate via Cys (Re(V)=O)) [8-6]”, “Pyr-Gln-Arg-Leu-Gly-Asn-Gln-Cys-Ala-Val-Gly-His-Leu-Nle-NH2 (QRLGNQCAVGHL; N-term pyroglutamate; Nle-NH2; rhenium complex; printed: Gln-Arg-Leu-Gly-Asn-Gln-Cys-Ala-Val-Gly-His-Leu-) [7-7]” is lower in “% Inhibition” value: 35% for the first, −2% for the second.

Going from “D-Phe-Gln-Trp-Cys-Val-His-Leu-Leu-NH2 ([dF]QWCVHLL-NH2; not fully specified (bridges); printed as D-Phe-Gln-Trp-Cys-Val-His-Leu-Leu-NH2; also: oxorhenium(V) N3S1 chelate complex (Re=O)) [12-6]” to “Trp-Ala-Val-Cys-His-NH2 (WAVCH-NH2; not fully specified (bridges); printed as Trp-Ala-Val-Cys-His-NH2; also: oxorhenium(V) N3S1 chelate (Re=O) with Cys) [11-11]”, the “% Inhibition” value falls from 10% to −1%.

Compared with “D-Phe-Gln-Trp-Ala-Val-Gly-Cys-His-Leu-Leu-NH2 ([dF]QWAVGCHLL-NH2; also: oxorhenium(V) N3S1 chelate via Cys (Re(V)=O)) [8-4]”, “D-Phe-Gln-Trp-Ala-Val-Cys-Gly-His-Leu-Leu-NH2 ([dF]QWAVCGHLL-NH2; also: oxorhenium(V) N3S1 chelate via Cys (Re(V)=O)) [8-5]” is higher in “% Inhibition” value: 59% for the first, 70% for the second.

Going from “Pyr-Gln-Arg-Leu-Gly-Asn-Gln-Trp-Ala-Val-Cys-His-Leu-Nle-NH2 (QRLGNQWAVCHL; N-terminal pyroglutamate; C-terminal Nle-amide; printed: Gln-Arg-Leu-Gly-Asn-Gln-Trp-Ala-Val-Cys-His-Leu-) [7-4]” to “Pyr-Gln-Arg-Leu-Gly-Asn-Gln-Trp-Ala-Val-Gly-His-Leu-Cys-Nle-NH2 (QRLGNQWAVGHLC; N-term pyroglutamate; Nle-NH2; rhenium complex; printed: Gln-Arg-Leu-Gly-Asn-Gln-Trp-Ala-Val-Gly-His-Leu-Cys-) [6-2]”, the “% Inhibition” value rises from 81% to 91%.

First: Ac-Ala-Gln-Cys-Leu-Gly-Asn-Gln-Trp-Ala-Val-Gly-His-Leu-Nle-NH2 (Ac-AQCLGNQWAVGHL[Nle]-NH2; also: oxorhenium(V) N3S1 tetradentate complex via Cys) [7-12]
Second: D-Phe-Gln-Trp-Ala-Val-Cys-D-His-Leu-Leu-NH2 ([dF]QWAVC[dH′]LL-NH2; also: oxorhenium(V) N3S1 chelate via Cys (Re(V)=O)) [10-1]
The “% Inhibition” value of the first is higher: 96% for the first, 10% for the second.

Compared with “D-Phe-Gln-Trp-Ala-Val-D-Cys-His-Leu-Leu-NH2 (chain 1 [dF]QWAV; chain 2 [dC]HLL-NH2; not fully specified (bridges); also: chain 2 continues chain 1 in one peptide (Val-D-Cys bond), Re-peptide (rhenium complex)) [10-2]”, “D-Phe-Gln-Trp-Val-Cys-Gly-His-Leu-Leu-NH2 ([dF]QWVCGHLL-NH2; also: oxorhenium(V) N3S1 chelate complex (Re=O)) [12-1]” is lower in “% Inhibition” value: 64% for the first, 2% for the second.

First: D-Phe-Gln-Trp-Ala-Val-Cys-NH2 ([dF]QWAVC-NH2; also: oxorhenium(V) N3S1 chelate via Cys (Re(V)=O)) [11-3]
Second: D-Phe-Gln-Trp-Ala-Val-Cys-His-Leu-NH2 ([dF]QWAVCHL-NH2; also: oxorhenium(V) N3S1 chelate via Cys (Re(V)=O)) [11-1]
The “% Inhibition” value of the first is lower: −81% for the first, 98% for the second.

Going from “Pyr-Gln-Arg-Leu-Gly-Asn-Gln-Trp-Cys-Val-Gly-His-Leu-Nle-NH2 (QRLGNQWCVGHL; N-terminal pyroglutamate; C-terminal Nle-amide; printed: Gln-Arg-Leu-Gly-Asn-Gln-Trp-Cys-Val-Gly-His-Leu-) [7-6]” to “D-Phe-Gln-Trp-Ala-Val-Cys-His-Leu-Leu-NH2 ([dF]QWAVCHLL-NH2; also: Re metal complex (oxorhenium(V) N3S1 chelate via Cys)) [9-4]”, the “% Inhibition” value falls from 91% to 75%.

“D-Phe-Gln-D-Trp-Ala-Val-Cys-His-Leu-Leu-NH2 ([dF]Q[dW]AVCHLL-NH2; numbers in words are those of the source; also: oxorhenium(V) N3S1 tetradentate complex via Cys) [10-5]” and “Ala-Val-Cys-His-Leu-Leu-NH2 (AVCHLL-NH2; not fully specified (bridges); printed as Ala-Val-Cys-His-Leu-Leu-NH2; also: oxorhenium(V) N3S1 chelate (Re(V)=O)) [11-6]” are the same in “% Inhibition” value: 6% for the first, 6% for the second.

First: Pyr-Gln-Arg-Cys-Gly-Asn-Gln-Trp-Ala-Val-Gly-His-Leu-Nle-NH2 (QRCGNQWAVGHL; N-term pyroglutamate; Nle-NH2; rhenium complex; printed: Gln-Arg-Cys-Gly-Asn-Gln-Trp-Ala-Val-Gly-His-Leu-) [7-11]
Second: Pyr-Gln-Arg-Leu-Gly-Asn-Gln-Trp-Ala-Val-Gly-His-Leu-Cys-NH2 (QRLGNQWAVGHLC; N-term pyroglutamate; C-terminal amide; rhenium complex; printed: Gln-Arg-Leu-Gly-Asn-Gln-Trp-Ala-Val-Gly-His-Leu-Cys-) [7-1]
The “% Inhibition” value of the first is higher: 95% for the first, 73% for the second.
